Experiment: mn = molality of the nth substance listed, in mol/kg
Settings: 101 kPa, Liquid, Alternating current cell with electrodes

O=[N+]([O-])[O-].O=[N+]([O-])[O-].O=[N+]([O-])[O-].[Fe+3] [ferric nitrate] + O
electrical conductivity [S/m]
Settings | 278.1 K | 283.1 K | 298.15 K | 308.15 K | 318.15 K | 343.15 K | 363.15 K
m1 = 9.9e-05 | – | – | – | – | – | 9.086 | 10.27
m1 = 0.000984 | – | – | – | – | – | 9.106 | 10.33
m1 = 0.00985 | – | – | – | – | – | 9.553 | 10.91
m1 = 0.09618 | 5.143 | 5.777 | 7.576 | 8.788 | 10.15 | 13.85 | 16.52
m1 = 0.2534 | 6.656 | 7.523 | 9.984 | 11.83 | 14.02 | 20.32 | –

O=S(=O)([O-])[O-].O=S(=O)([O-])[O-].O=S(=O)([O-])[O-].[Fe+3].[Fe+3] [ferric sulfate] + O
electrical conductivity [S/m]
Settings | 343.15 K | 363.15 K
m1 = 0.000104 | 0.659 | 0.6888
m1 = 0.000829 | 0.681 | 0.718

[Cl][Fe][Cl] [ferrous chloride] + O
electrical conductivity [S/m]
Settings | 278.1 K | 283.1 K | 298.15 K | 308.15 K | 318.15 K | 343.15 K | 363.15 K
m1 = 9e-05 | 0.3365 | 0.3724 | 0.4835 | 0.5486 | 0.6142 | 0.7702 | 0.8954
m1 = 0.000726 | 0.3437 | 0.3802 | 0.494 | 0.5646 | 0.635 | 0.8025 | 0.9282
m1 = 0.00908 | 0.4397 | 0.4997 | 0.6568 | 0.7661 | 0.8715 | 1.148 | 1.354
m1 = 0.1169 | 1.6 | 1.807 | 2.494 | 3.003 | 3.516 | 4.889 | 5.966

Cl [hydrogen chloride] + O
electrical conductivity [S/m]
Settings | 278.15 K | 283.15 K | 298.15 K | 308.15 K | 318.15 K | 343.15 K | 363.15 K
m1 = 0.00011 | 0.003313 | 0.003683 | 0.004665 | 0.00531 | 0.005973 | 0.007487 | 0.008461
m1 = 0.000958 | 0.028 | 0.03088 | 0.03978 | 0.04565 | 0.05121 | 0.06414 | 0.07325
m1 = 0.00937 | 0.2714 | 0.3001 | 0.3869 | 0.4408 | 0.4932 | 0.6227 | 0.7132
m1 = 0.09398 | 2.604 | 2.872 | 3.684 | 4.19 | 4.673 | 5.872 | 6.722
m1 = 0.4603 | 11.98 | 13.14 | 16.69 | 18.97 | 21.09 | 26.23 | 29.87
m1 = 0.85 | 20.2 | 22.06 | 27.9 | 31.53 | 34.95 | 43.45 | 48.24

O=S(=O)([O-])O.[K+] [hydrogen potassium sulfate] + O
electrical conductivity [S/m]
Settings | 278.15 K | 283.15 K | 298.15 K | 308.15 K | 318.15 K | 343.15 K | 363.15 K
m1 = 0.000161 | 0.006027 | 0.006684 | 0.008772 | 0.01017 | 0.01154 | 0.01478 | 0.01675
m1 = 0.000981 | 0.03588 | 0.03981 | 0.05156 | 0.05895 | 0.06564 | 0.07958 | 0.0854
m1 = 0.01608 | 0.4635 | 0.5067 | 0.623 | 0.6784 | 0.7238 | 0.7958 | 0.8195
m1 = 0.09815 | 2.141 | 2.318 | 2.791 | 2.998 | 3.157 | 3.469 | 3.665
m1 = 0.2291 | 4.379 | 4.728 | 5.71 | 6.137 | 6.456 | 7.159 | 7.699
